pIC50, pKd: −log10 of the molar value. Where a name gives a salt, the structure may show the parent alone. Peptide text beside a SMILES is read from it.
Key:
[1] = biological target: murine M1 muscarinic acetylcholine receptor (Rattus norvegicus, UniProt P08482); experiment: cell-based; settings: IC50, IP-One Assay
[2] = biological target: free fatty acid receptor 1 (FFAR1) (Homo sapiens, UniProt O14842)
[3] = biological target: neuropeptide S (NPS) receptor (Homo sapiens, UniProt Q6W5P4); settings: NPSR
Chain of neuropeptide S (NPS) receptor (Q6W5P4 whole entry): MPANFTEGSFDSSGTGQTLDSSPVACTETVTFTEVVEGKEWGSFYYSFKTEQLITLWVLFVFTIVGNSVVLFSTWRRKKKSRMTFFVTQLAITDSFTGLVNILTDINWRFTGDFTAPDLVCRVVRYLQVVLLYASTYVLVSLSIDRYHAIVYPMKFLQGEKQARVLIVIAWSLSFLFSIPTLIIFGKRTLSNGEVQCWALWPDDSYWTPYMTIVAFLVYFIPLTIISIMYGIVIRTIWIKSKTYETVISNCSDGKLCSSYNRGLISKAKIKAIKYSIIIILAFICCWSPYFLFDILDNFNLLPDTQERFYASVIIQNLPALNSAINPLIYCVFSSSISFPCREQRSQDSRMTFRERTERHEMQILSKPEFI

[4] = biological target: NPS receptor; settings: read-out: Kd value of NPS receptor binding; reported previously; cited from earlier work
[5] = biological target: NPS receptor (Homo sapiens) (UniProt Q6W5P4); settings: cited from earlier work
Chain of NPS receptor (Homo sapiens) (Q6W5P4 whole entry): as above

Chain of murine M1 muscarinic acetylcholine receptor (P08482 whole entry): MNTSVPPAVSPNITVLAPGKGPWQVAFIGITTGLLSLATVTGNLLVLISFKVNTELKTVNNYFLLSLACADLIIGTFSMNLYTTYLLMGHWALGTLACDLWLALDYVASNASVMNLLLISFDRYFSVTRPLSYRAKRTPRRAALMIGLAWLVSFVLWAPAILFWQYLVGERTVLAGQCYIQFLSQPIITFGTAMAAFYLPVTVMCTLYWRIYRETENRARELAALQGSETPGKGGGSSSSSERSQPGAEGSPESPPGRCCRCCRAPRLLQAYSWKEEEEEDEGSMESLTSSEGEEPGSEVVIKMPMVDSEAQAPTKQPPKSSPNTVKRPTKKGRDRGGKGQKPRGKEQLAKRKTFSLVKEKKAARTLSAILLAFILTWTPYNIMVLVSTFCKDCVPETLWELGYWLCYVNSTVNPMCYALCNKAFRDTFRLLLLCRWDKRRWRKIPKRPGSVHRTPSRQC
Chain of free fatty acid receptor 1 (FFAR1) (O14842 whole entry, species assumed): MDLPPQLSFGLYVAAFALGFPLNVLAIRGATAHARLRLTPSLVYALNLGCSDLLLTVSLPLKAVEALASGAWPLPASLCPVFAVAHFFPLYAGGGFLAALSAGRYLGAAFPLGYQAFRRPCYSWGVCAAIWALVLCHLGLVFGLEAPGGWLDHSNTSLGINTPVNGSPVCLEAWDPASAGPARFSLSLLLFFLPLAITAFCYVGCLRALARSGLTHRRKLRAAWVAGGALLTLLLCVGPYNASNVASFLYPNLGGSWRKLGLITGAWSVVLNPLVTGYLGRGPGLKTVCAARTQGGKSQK
Chain of Neuropeptide S (P0C0P6 68-89): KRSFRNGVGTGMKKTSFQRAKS

Row | Molecule | pIC50 [1] | other results
1 | C[N+]1(C)[C@@H]2CC[C@H]1C[C@@H](OC(=O)C(CO)c1ccccc1)C2 (mixture of isomers) [Atropine methyl bromide] | 8.52 | –
2 | C[N+]1(C)[C@@H]2CC[C@H]1C[C@@H](OC(=O)C(CO)c1ccccc1)C2 (mixture of isomers) [Atropine methyl nitrate] | 9.00 | –
3 | CN1[C@@H]2CC[C@H]1C[C@@H](OC(c1ccccc1)c1ccccc1N)C2 (some centres unmarked) [Aminobenztropine] | 8.52 | –
4 | O=C(O)CCc1ccc(NCc2cccc(Oc3ccccc3)c2)cc1 [GW9508] | – | Ratio b/a (EC50 IP-One / EC50 calcium) [2]: 1.1
5 | CC[N+](CC)(CC)CCOc1ccc(/C=C/c2ccccc2)cc1 [MG 624] | 6.40 | –
6 | CSCC[C@H](NC(=O)CNC(=O)[C@@H](NC(=O)CNC(=O)[C@@H](NC(=O)CNC(=O)[C@H](CC(N)=O)NC(=O)[C@H](CCCNC(=N)N)NC(=O)[C@H](Cc1ccccc1)NC(=O)[C@@H](N)CO)C(C)C)[C@@H](C)O)C(=O)N[C@@H](CCCCN)C(=O)N[C@@H](CCCCN)C(=O)N[C@H](C(=O)N[C@@H](CO)C(=O)N[C@@H](Cc1ccccc1)C(=O)N[C@@H](CCC(N)=O)C(=O)N[C@@H](CCCNC(=N)N)C(=O)N[C@@H](C)C(=O)N[C@@H](CCCCN)C(=O)N[C@@H](CO)C(=O)O)[C@@H](C)O [NPS, neuropeptide S] (H-SFRNGVGTGMKKTSFQRAKS-OH) | – | Ratio b/a (EC50 IP-One / EC50 calcium) [3]: 1.9; pKd [4]: 9.48
7 | CC(=O)O[C@H]1C[C@@H]2CC[C@@H]3[C@H](CC[C@@]4(C)[C@H]3C[C@H]([N+]3(C)CCCCC3)[C@@H]4OC(C)=O)[C@@]2(C)C[C@@H]1[N+]1(C)CCCCC1 [Pancuronium bromide] | 4.90 | –
8 | CC(C)[N+](C)(CCOC(=O)C1c2ccccc2Oc2ccccc21)C(C)C [Propantheline bromide] | 9.00 | –
9 | Cc1scc2c1N(C(=O)CN1CCN(C)CC1)c1ccccc1NC2=O [Telenzepine dihydrochloride] | 7.60 | –
10 | Neuropeptide S (from UniProt P0C0P6) | – | pKd [5]: 9.48

Source: publication PMC2774619 (Current Chemical Genomics, 2008)
